# PubChem BioAssay (NCI)
#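 Tested at 5 concentrations; 48 h exposure; 96-well plates; endpoints linearly interpolated, else capped at highest concentration. Here, GI50 denotes the concentration required for 50% inhibition of growth. At the TGI there is no net growth.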 Where a SMILES comes first, the peptide text is derived from it. [ ]: non-standard residue; d: D form. Phe(F5) = N[CH](Cc1c(F)c(F)c(F)c(F)c1F)C(=O)O
# Tests used:
# Test in all cases: NCI tumour cell line growth inhibition, 48 h
# TK-10 renal = test system: TK-10 renal
# HCT-15 colon = test system: HCT-15 colon
# IGROV1 ovarian = test system: IGROV1 ovarian
# SF-268 CNS = test system: SF-268 CNS
# 786-0 renal = test system: 786-0 renal
# HCC-2998 colon = test system: HCC-2998 colon
# SK-MEL-5 melanoma = test system: SK-MEL-5 melanoma
# EKVX NSCLC = test system: EKVX NSCLC
# UACC-257 melanoma = test system: UACC-257 melanoma
# OVCAR-3 ovarian = test system: OVCAR-3 ovarian
Structure (SMILES),GI50 (TK-10 renal) [µM],TGI (TK-10 renal) [µM],GI50 (HCT-15 colon) [µM],TGI (HCT-15 colon) [µM],GI50 (IGROV1 ovarian) [µM],TGI (IGROV1 ovarian) [µM],GI50 (SF-268 CNS) [µM],TGI (SF-268 CNS) [µM],GI50 (786-0 renal) [µM],TGI (786-0 renal) [µM],GI50 (HCC-2998 colon) [µM],TGI (HCC-2998 colon) [µM],GI50 (SK-MEL-5 melanoma) [µM],TGI (SK-MEL-5 melanoma) [µM],GI50 (EKVX NSCLC) [µM],TGI (EKVX NSCLC) [µM],GI50 (UACC-257 melanoma) [µM],TGI (UACC-257 melanoma) [µM],TGI (OVCAR-3 ovarian) [µM],GI50 (OVCAR-3 ovarian) [µM]
COc1cc(Cn2cc3c(c2)-c2oncc2CC3)cc(OC)c1OC,5.77,> 100,0.0415,> 100,0.0456,24.8,0.0778,> 55.4,0.109,> 64.6,0.0413,17,0.0366,0.195,0.0467,> 65.7,1.16,51.7,,
Cn1c(=O)c2[nH]c(/N=N/N3CCN(CCO)CC3)nc2n(C)c1=O,,> 100,,> 100,,> 100,,> 100,,> 100,,,,> 100,,> 100,,> 100,> 100,
CC1=C2CCCC2C/C(=N/Nc2ccc([N+](=O)[O-])cc2[N+](=O)[O-])CC1 (stereo not given),,> 100,,> 100,,> 100,,> 100,,> 100,,> 100,,> 100,,,,> 100,> 100,
NCC1(N2CCOCC2)C2CCCC21CO (stereo not given),,,,> 100,,> 100,,> 100,,> 100,,> 100,,> 100,,,,> 100,> 100,
COC(=O)[C@@H]1CSC(=S)N1C(=O)C[C@H]1CC=CC[C@H]1CC(=O)Sc1ccccc1,,,,32.3,,39.7,,35.1,,32.3,,33.4,,,,32.2,,35.9,36.2,
O=C(NCCCCCCNC(=O)c1cccc2ccccc12)c1cccc2ccccc12,,36.9,,> 100,,> 100,,81.9,,80.7,,,,> 100,,> 100,,> 100,71,
O=C1c2ccccc2C(=O)N1CC1(C(=O)O)NCCS1(=O)=O (stereo not given),,> 100,,> 100,,> 100,,> 100,,> 100,,,,> 100,,> 100,,> 100,> 100,
CN(C)c1ccc2c(NCCCCCCNc3ccnc4cc(N(C)C)ccc34)ccnc2c1,,32.2,,> 100,,,,> 100,,45.3,,70.7,,> 100,,> 100,,49.9,27.7,
COC(=O)C(CC(C)C)NC(=O)C(Cc1cnc[nH]1)NC(=O)CNC(=O)C(NC(=O)C(C)NC(=O)C(Cc1c[nH]c2ccccc12)NC(=O)C(CCC(=O)O)NC(=O)C(N)Cc1c(F)c(F)c(F)c(F)c1F)C(C)C (stereo not given) (H-[Phe(F5)]EWAVGHL-OMe; configuration not given here),,,> 100,> 100,> 100,> 100,,> 12.5,> 100,> 100,> 100,> 100,,> 12.5,> 100,> 100,> 100,> 100,> 100,> 100
Cc1ccc2[nH]c(C(=O)NN3C(=O)CSC34CCCCC4C)c(-c3ccccc3)c2c1 (stereo not given),17.5,33.8,18,39.1,,,17.2,37.4,17.3,37.9,16.4,31.6,15.1,31.3,17,33.8,16.8,31.8,30.1,13.9
CCOC(=O)c1c2c(n(CC(C)C)c1C)-c1nc[nH]c1C(=O)C2=O,20.5,36.6,14.7,27.9,18.8,36,15.2,28.5,19.2,33.3,,,16.2,30.2,15,28.2,18.4,32.3,26.3,13
CC12CCC(=O)C(O1)C1C(=O)c3cc4ccccc4cc3C(=O)C12 (stereo not given),16.6,33.6,17.3,36.8,23.9,> 100,16.1,53,16.3,30,,,,,23.4,72.2,16.2,32.5,,
COc1ccc(Cn2nc(-c3cc(OC)c(OC)c(OC)c3)c3c2CCc2cnoc2-3)cc1OC,10.1,> 100,4.98,> 100,7.28,> 100,5.41,> 100,6.34,> 100,5.85,> 100,2.78,12,,,34.6,> 100,9.61,3.29
COc1cc(/C=C\c2ccccn2)cc(OC)c1OC,,> 100,,> 100,,> 100,,> 100,,> 100,,,,> 100,,> 100,,> 100,> 100,
O=C1C(Cl)=C(N/N=c2/[nH][nH]/c(=N/NC3=C(Cl)C(=O)c4ccccc4C3=O)c3ccccc23)C(=O)c2ccccc21,,,19.8,> 100,17.7,48.5,12.2,29.9,17.4,32.3,,,14.1,29.3,,,14.9,28.7,36.4,15.6
CC12CCC(=O)C=C1CCC1C2CCC2(C)C(C(=O)Cn3cnc4c(=S)nc[nH]c43)CCC12 (stereo not given),,> 100,,> 100,,> 100,,> 100,,> 100,,,,> 100,,> 100,,> 100,49.6,
COc1cccc(OC(=O)c2ccccc2Nc2ccnc(C(F)(F)F)c2)c1,11.2,37,2.81,12,23.6,> 100,4.65,26.7,3.43,12.2,,,2.23,,6.62,> 100,5.37,32.4,10.5,1.65
Nc1cc(=O)[nH]c(SC2=NC(N)CC(O)C2)n1 (stereo not given),,> 100,,> 100,,> 100,,,,> 100,,> 100,,> 100,,> 100,,> 100,> 100,
CC1CC2C(=O)NC(=O)C2c2[nH]c3ccccc3c21 (stereo not given),,,,> 100,,> 100,,> 100,,> 100,,,,> 100,,> 100,,,> 100,
Cc1ccc2c(c1)C1(C)OC(CC(N)C1O)O2 (stereo not given),,> 100,,> 100,,> 100,,,,> 100,,,,> 100,,> 100,,> 100,> 100,
COC(=O)CCC(=O)N1Cc2cc(C)ccc2N(C(=O)CCC(=O)OC)Cc2cc(C)ccc21,,> 100,,> 100,,> 100,,> 100,,> 100,,,,> 100,,> 100,,,> 100,
CC1=CC(=O)c2c(O)cccc2C1=O,,3.14,,,,3.33,,3.96,,3.01,,4.12,,3.05,,3.08,,3.27,2.29,
O=C(O)CS(=O)(=O)C(c1ccccc1)c1ccccc1,,> 100,,> 100,,> 100,,> 100,,> 100,,,,> 100,,> 100,,> 100,> 100,
CN(C)CCCNC(=O)c1cc(NC(=O)CCNS(=O)(=O)c2ccc3c(c2)C(=O)c2ccccc2C3=O)cn1C,> 100,> 100,,,> 100,> 100,> 100,> 100,> 100,> 100,> 100,> 100,> 100,> 100,> 100,> 100,54.4,> 100,> 100,> 100
CCCN(Cc1ccc(F)cc1)c1ccc(CO)c(Cl)c1,0.0777,0.357,5.35,19.8,0.0897,0.39,16.1,32.1,4.77,19.7,8.9,22.5,6.51,19.8,,,0.207,0.776,4.02,0.662
OCC1OC(n2ccc3c2ncn2ncnc32)C(O)C1O (stereo not given),3.81,> 100,0.47,> 100,3.73,> 47.4,6.83,> 100,2.47,> 100,3.09,> 100,12,50.1,,,> 70.4,> 100,> 100,0.552
C=C1C(=O)O[C@H]2C[C@@H](C)[C@@H]3CC(=O)OC[C@@]3(C)CC12 (stereo not given in full),,55.2,,> 100,,> 100,,> 100,,> 100,,98.5,,> 100,,> 100,,,74.6,
